Key:
liver cells = assay: Drug metabolism activity / global hepatic function of liver cells with other BTK inhibitors and PLK siRNA; assay type: cell-based
Text: […] The broad enhancement of hepatic function seen with LFM-A13 is not observed with these structurally unrelated BTK inhibitors.

[1] = test system: hepatic markers (ALB, AFP, CYP3A4, CYP7A1, PGC1a); assay: Real-time PCR mRNA expression of hepatic markers in differentiated hESCs; assay type: cell-based, human; details: collagen coated plates with or without Matrigel overlay (FIG. 11)
Method: The effect of LFM-A13 on rifampicin-induced CYP3A4 activity and on mRNA expression of a variety of hepatic markers is also determined on the differentiated hESCs. […] In FIG. 11, ALB is albumin, AFP is alpha-fetoprotein, CYP3A4 is cytochrome p450 3A4, CYP7A1 is cytochrome p450 7A1, and PGC1a is […] (COL=collagen I coated plate; MOL=Matrigel overlay).

[2] = test system: mRNA for drug metabolism enzymes and hepatic proteins; assay: Relative mRNA levels by real-time PCR in primary human hepatocytes; assay type: cell-based; details: 10 μM
Method: The effects of LEF, LFM, and LFM-A13 on gene expression are tested. Briefly, primary human hepatocytes cultured on collagen I coated surface are incubated with Corning hepatocyte medium containing vehicle control, 10 μM LEF, 10 μM LFM, and 10 μM LFM-A13, respectively. At the end of 48-hour incubation, total RNA is isolated and relative mRNA levels are quantified using real-time PCR. The results are shown in FIG. 6, where CYP is cytochrome P450 enzyme, SULT is sulfotransferase, UGT is UDP-glucuronosyltransferase, ABC is ATP-binding cassette transporters, AHR is aryl hydrocarbon receptor, CAR is constitutive androstene receptor, and PXR is pregnenolone x-receptor.
The effect of LFMA-13 on levels of mRNA encoding a wider variety of drug metabolism enzymes and other proteins of primary human hepatocytes is tested. Briefly, primary human hepatocytes cultured on collagen I coated surface are incubated with Corning hepatocyte medium containing vehicle control and 10 μM LFM-A13, respectively. At the end of 48-hour incubation, total RNA is isolated and relative mRNA levels are quantified using real-time PCR. The results are shown in FIG. 7, where ABC is ATP-binding cassette transporters, CYP is cytochrome P450 enzyme, SLC is solute carrier transporter, SULT is sulfotransferase, UGT is UDP-glucuronosyltransferase, GST is glutathione S-transferase, AHR is aryl hydrocarbon receptor, FOXO is forkhead box receptors, HNF is hepatic nuclear factor, NCO is nuclear receptor coactivator, NR is nuclear receptor, PPARGC1A is peroxisome proliferator-activated receptor gamma coactivator 1-alpha, RXR is retinoid X receptor, and VDR is vitamin D receptor.

[3] = test system: human embryonic stem cells (hESCs) derived hepatocytes; assay: Immunostaining of hepatic markers in hESC derived hepatocytes; assay type: cell-based; details: Corning hepatocyte medium, 10 μM, 7 days, versus absence (FIG. 9)
Method: The effects of LFM-A13 on human embryonic stem cells (hESCs) derived hepatocytes are evaluated. Briefly, hESCs are committed to the hepatocyte lineage using methods known to those skilled in the art and then are cultured in Corning hepatocyte medium in the presence or absence of 10 μM LFM-A13. After 7 days, the stem cell derived hepatocytes are immunostained with primary antibodies to detect expression of hepatocyte proteins; (b) to test for the presence of albumin (ALB), a hepatic precursor marker; and (c) to test for the presence of multidrug resistance-associated protein 2 (MRP2), a member of the superfamily of ATP-binding cassette (ABC) transporters and a marker for hepatic function. Nuclei of cells are counterestained with 4′,6-diamidino-2-phenylindole dihydrochloride (DAPI) to visualize all cells (FIG. a). As depicted, hESCs cultured in the absence of LFM-A13 (left column) have low levels of hepatic markers (ALB and MRP2). In contrast, hESCs cultured in the presence of LFM-A13 (right column) have higher levels of hepatic markers (ALB and MRP2).

BTK = BTK (Homo sapiens, UniProt Q06187); details: reported, U.S. Pat. No. 6,303,652; cited from earlier work
Polo-like kinase (PLK) = details: stated as known; cited from earlier work

Sequence of BTK (Q06187 whole entry, species assumed): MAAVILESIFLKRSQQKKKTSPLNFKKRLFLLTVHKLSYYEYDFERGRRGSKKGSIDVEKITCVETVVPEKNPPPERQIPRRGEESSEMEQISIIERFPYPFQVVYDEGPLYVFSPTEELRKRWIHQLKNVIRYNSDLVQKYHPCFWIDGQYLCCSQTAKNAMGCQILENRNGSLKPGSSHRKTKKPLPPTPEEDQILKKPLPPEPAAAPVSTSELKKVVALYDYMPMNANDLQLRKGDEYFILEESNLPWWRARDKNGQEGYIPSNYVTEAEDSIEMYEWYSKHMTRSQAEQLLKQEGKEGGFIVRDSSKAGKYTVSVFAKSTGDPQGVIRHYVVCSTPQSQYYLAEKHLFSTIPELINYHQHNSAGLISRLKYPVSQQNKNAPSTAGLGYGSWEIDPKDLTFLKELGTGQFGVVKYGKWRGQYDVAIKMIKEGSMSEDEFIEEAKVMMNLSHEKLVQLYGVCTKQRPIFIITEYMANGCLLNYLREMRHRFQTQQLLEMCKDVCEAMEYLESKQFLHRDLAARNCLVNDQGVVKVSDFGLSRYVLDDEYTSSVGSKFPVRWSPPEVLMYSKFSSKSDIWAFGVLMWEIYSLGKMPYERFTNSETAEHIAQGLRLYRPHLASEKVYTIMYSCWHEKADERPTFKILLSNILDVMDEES

SMILES | broad enhancement of hepatic function / global hepatic enhancement (liver cells) | expression of hepatic markers (mRNA) [1] | AHR mRNA level ([2]; 48 h (FIG. 6)) | CYP1A2 mRNA level ([2]; 48 h (FIG. 6)) | CYP2B6 mRNA level ([2]; 48 h (FIG. 6)) | CYP3A4 mRNA level ([2]; 48 h (FIG. 6)) | UGT1A1 mRNA level ([2]; 48 h (FIG. 6)) | mRNA levels of some of the ABC transporters ([2]; 48 h (FIG. 6)) | mRNA levels of a wide variety of drug metabolism enzymes, including many CYPs ([2]; 48 h (FIG. 7)) | level of hepatic marker MRP2, immunostaining [3] | level of hepatic marker albumin (ALB), immunostaining [3] | BTK inhibition (BTK) | PLK inhibition (Polo-like kinase (PLK))
CC1=C(O)C(=O)[C@@H]2O[C@@H]2C1=O [Terreic acid] | not observed |  |  |  |  |  |  |  |  |  |  |  | 
C/C(O)=C(/C#N)C(=O)Nc1cc(Br)ccc1Br [LFM-A13, α-Cyano-β-Hydroxy-β-Methyl-N-(2,5-Dibrobophenyl)Propenamide] |  | enhanced expression | greatly increased | greatly increased | greatly increased | greatly increased | greatly increased | greatly increased | increased levels | higher levels | higher levels | potent BTK inhibitor | Polo-like kinase (PLK) inhibitor
